Source: US8232407B2, “Nitrogenous heterocyclic compounds with insecticidal activity, and the preparation and use thereof” (East China University of Science and Technology, priority 2008, dated 2012)

How the values were obtained:
Type in all cases: in vivo
Aphis craccivoral = assay: Insecticidal activities to aphids, immersion method; settings: for Aphis craccivoral Mortality (%) 500 ppm: in vivo; for mortality at 500 ppm: Aphis, immersion method, read-out: Aphis craccivoral Mortality (%) 500 ppm
Outline: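 Wingless adult aphids feeding on bean sprouts were dipped 5 s in 500 ppm compound (DMF stock diluted in 0.2 mL/L aqueous Triton X-100), blotted and held at 23° C. Dead counted at 24 h, three replicates; mortality corrected against Triton-only controls.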

Nilaparvata lugens = assay: Insecticidal activities to plant hopper, spraying method; settings: for Nilaparvata lugens Mortality (%) 500 ppm: in vivo; for mortality at 500 ppm: Nilaparvata lugens, spraying method, counted after 24 hours, read-out: Nilaparvata lugens Mortality (%) 500 ppm
Outline: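 Nilaparvata lugens, 10 insects per tumbler, sprayed with 2 ml compound in acetone at 0.79-500 ppm, three replicates, aqueous acetone control. Dead insects counted after 24 h; mortality corrected against control survival.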

[1] = system: Pseudaletia separate Walker; assay: Insecticidal activities to armyworm, leaf dipping and feeding
Outline: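 Maize leaves dipped 3 s in acetone-formulated compound at 500 down to 1.57 ppm, dried and fed to armyworms, 10 insects per treatment in triplicate, aqueous acetone as control. Mortality was counted after 24 hours and corrected against control survival.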

Plutella xylostella = assay: Insecticidal activities to diamondback moth, feeding dipped leaves; settings: for Plutella xylostella Mortality (%) 500 ppm: in vivo; for mortality at 500 ppm: Plutella xylostella, feeding dipped leaves, counted after 24 hours, read-out: Plutella xylostella Mortality (%) 500 ppm
Outline: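 Leaf-dip feeding assay: fresh cabbage leaves dipped 3 s in test solution, air-dried and fed to Plutella xylostella, 10 insects per treatment, three replicates, water control. Deaths counted after 24 h; mortality corrected against survival in the control group.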

[2] = 500 ppm, leaf dipping and feeding, counted after 24 hours

## O=[N+]([O-])C(=Cc1ccc(CO)s1)C1=NCCN1Cc1ccc(Cl)nc1 [Compound 30]
Aphis craccivoral
  Aphis craccivoral Mortality (%) 500 ppm: 100%
Nilaparvata lugens
  Nilaparvata lugens Mortality (%) 500 ppm: 100%
[1]; in vivo
  Pseudaletia separate Walker Mortality (%) 500 ppm: 100%
Plutella xylostella
  Plutella xylostella Mortality (%) 500 ppm: 100%

## O=[N+]([O-])C(=Cc1ccoc1)C1=NCCCN1Cc1ccc(Cl)nc1 [Compound 47]
Aphis craccivoral
  Aphis craccivoral Mortality (%) 500 ppm: 100%
Nilaparvata lugens
  Nilaparvata lugens Mortality (%) 500 ppm: 100%
[1]; in vivo
  Pseudaletia separate Walker Mortality (%) 500 ppm: 100%
Plutella xylostella
  Plutella xylostella Mortality (%) 500 ppm: 100%

## N#CC(=Cc1cc(Cl)c(Cl)s1)C1=NCCN1Cc1ccc(Cl)nc1 [Compound 149]
Aphis craccivoral
  Aphis craccivoral Mortality (%) 500 ppm: 94%
Nilaparvata lugens
  Nilaparvata lugens Mortality (%) 500 ppm: 100%
[1]; in vivo
  Pseudaletia separate Walker Mortality (%) 500 ppm: 97%
Plutella xylostella
  Plutella xylostella Mortality (%) 500 ppm: 100%

## O=[N+]([O-])/C(=C/c1ccoc1)C1=NCCN1Cc1ccc(Cl)nc1 [Compound 2, 2-chloro-5-((2-(2-(furan-3-yl)-1-nitrovinyl)-4,5-dihydro-imidazol-1-yl)-methyl) pyridine]
Aphis craccivoral
  mortality at 500 ppm: 100%
Nilaparvata lugens
  mortality at 500 ppm: 100%
[1]; [2]
  Pseudaletia separate Walker Mortality (%) 500 ppm: 100%
Plutella xylostella
  mortality at 500 ppm: 100%

## C[N+]1=C(C(=Cc2ccc(CO)o2)[N+](=O)[O-])N(Cc2ccc(Cl)nc2)CC1.[Cl-] [Compound 258]
Aphis craccivoral
  Aphis craccivoral Mortality (%) 500 ppm: 100%
Nilaparvata lugens
  Nilaparvata lugens Mortality (%) 500 ppm: 100%
[1]; in vivo
  Pseudaletia separate Walker Mortality (%) 500 ppm: 100%
Plutella xylostella
  Plutella xylostella Mortality (%) 500 ppm: 100%

## CC(c1ccc(Cl)nc1)N1CCN=C1C(=Cc1ccsc1)[N+](=O)[O-] (racemic) [Compound 128]
Aphis craccivoral
  Aphis craccivoral Mortality (%) 500 ppm: 100%
Nilaparvata lugens
  Nilaparvata lugens Mortality (%) 500 ppm: 100%
[1]; in vivo
  Pseudaletia separate Walker Mortality (%) 500 ppm: 100%
Plutella xylostella
  Plutella xylostella Mortality (%) 500 ppm: 100%

## CC(=C(C1=NCCN1Cc1ccc(Cl)nc1)[N+](=O)[O-])c1ccc([N+](=O)[O-])o1 [Compound 113]
Aphis craccivoral
  Aphis craccivoral Mortality (%) 500 ppm: 80%
Nilaparvata lugens
  Nilaparvata lugens Mortality (%) 500 ppm: 100%
[1]; in vivo
  Pseudaletia separate Walker Mortality (%) 500 ppm: 100%
Plutella xylostella
  Plutella xylostella Mortality (%) 500 ppm: 100%

## O=[N+]([O-])/C(=C/c1cccs1)C1=NCCN1Cc1ccc(Cl)nc1 [Compound 16, 2-chloro-5-((2-(1-nitro-2-(thiophen-2-yl)vinyl)-4,5-dihydro-imidazol-1-yl)-methyl)pyridine]
Aphis craccivoral
  mortality at 500 ppm: 100%
Nilaparvata lugens
  mortality at 500 ppm: 100%
[1]; [2]
  Pseudaletia separate Walker Mortality (%) 500 ppm: 100%
Plutella xylostella
  mortality at 500 ppm: 100%

## CC(=C(C1=NCCN1Cc1ccc(Cl)nc1)[N+](=O)[O-])c1ccoc1 [Compound 112]
Aphis craccivoral
  Aphis craccivoral Mortality (%) 500 ppm: 56%
Nilaparvata lugens
  Nilaparvata lugens Mortality (%) 500 ppm: 76%
[1]; in vivo
  Pseudaletia separate Walker Mortality (%) 500 ppm: 68%
Plutella xylostella
  Plutella xylostella Mortality (%) 500 ppm: 53%

## CC(=C(C1=NCCN1Cc1ccc(Cl)nc1)[N+](=O)[O-])c1ccc(C)o1 [Compound 114]
Aphis craccivoral
  Aphis craccivoral Mortality (%) 500 ppm: 92%
Nilaparvata lugens
  Nilaparvata lugens Mortality (%) 500 ppm: 100%
[1]; in vivo
  Pseudaletia separate Walker Mortality (%) 500 ppm: 10%
Plutella xylostella
  Plutella xylostella Mortality (%) 500 ppm: 30%

## O=[N+]([O-])C(=Cc1ccc([N+](=O)[O-])s1)C1=NCCN1Cc1ccc(Cl)nc1 [Compound 18]
Aphis craccivoral
  Aphis craccivoral Mortality (%) 500 ppm: 100%
Nilaparvata lugens
  Nilaparvata lugens Mortality (%) 500 ppm: 100%
[1]; in vivo
  Pseudaletia separate Walker Mortality (%) 500 ppm: 100%
Plutella xylostella
  Plutella xylostella Mortality (%) 500 ppm: 100%

## CC[N+]1=C(C(=Cc2ccc([N+](=O)[O-])s2)[N+](=O)[O-])N(Cc2ccc(Cl)nc2)CC1.[Cl-] [Compound 293]
Aphis craccivoral
  Aphis craccivoral Mortality (%) 500 ppm: 100%
Nilaparvata lugens
  Nilaparvata lugens Mortality (%) 500 ppm: 100%
[1]; in vivo
  Pseudaletia separate Walker Mortality (%) 500 ppm: 100%
Plutella xylostella
  Plutella xylostella Mortality (%) 500 ppm: 100%

## O=[N+]([O-])C(=Cc1ccc(CO)o1)C1=NCCN1Cc1ccc(Cl)nc1 [Compound 15]
Aphis craccivoral
  Aphis craccivoral Mortality (%) 500 ppm: 100%
Nilaparvata lugens
  Nilaparvata lugens Mortality (%) 500 ppm: 100%
[1]; in vivo
  Pseudaletia separate Walker Mortality (%) 500 ppm: 100%
Plutella xylostella
  Plutella xylostella Mortality (%) 500 ppm: 100%

## O=[N+]([O-])C(=Cc1cnc(Cl)s1)C1=NCCN1Cc1ccc(Cl)nc1 [Compound 35]
Aphis craccivoral
  Aphis craccivoral Mortality (%) 500 ppm: 100%
Nilaparvata lugens
  Nilaparvata lugens Mortality (%) 500 ppm: 100%
[1]; in vivo
  Pseudaletia separate Walker Mortality (%) 500 ppm: 100%
Plutella xylostella
  Plutella xylostella Mortality (%) 500 ppm: 100%

## CC(=C(C1=NCCN1C(C)c1ccc(Cl)nc1)[N+](=O)[O-])c1ccsc1 (racemic) [Compound 139]
Aphis craccivoral
  Aphis craccivoral Mortality (%) 500 ppm: 93%
Nilaparvata lugens
  Nilaparvata lugens Mortality (%) 500 ppm: 100%
[1]; in vivo
  Pseudaletia separate Walker Mortality (%) 500 ppm: 95%
Plutella xylostella
  Plutella xylostella Mortality (%) 500 ppm: 100%
